Data as given in patent US20240285656A1, “CANNABIDIOL (CBD) AND TERPENE F[…] INCREASES RESTORATIVE SLEEP IN HUMANS” (Defined Research, Inc., priority 2022, published 2024).

Key:
[1] = Clinical study 1: modified Hamilton Anxiety Rating Scale; assay type: in vivo, humans; details: responders n=10; placebo 15
Excerpt: FIGS. 8A-8C are graphs showing the CBD formulation Decreasing Anxiety. At the end of each treatment period, study participants completed a clinically-validated survey entitled the Hamilton Anxiety Rating Scale^29. Each item in this rating scale is scored on a scale of 0 (not present) to 4 (severe), with a total score range of 0-53, where <14 indicates mild severity, 15-21 mild to moderate severity, and 22-27 moderate to severe. Based on this survey, the CBD formulation decreases anxiety in participants DR13 (FIG. 8A), DR16 (FIG. 8B), and DR21 (FIG. 8C) relative to the placebo control or CBD alone.
FIG. 9A is a graph showing the CBD formulation decreases Anxiety in “Responders”. […] Each item in this rating scale is scored on a scale of 0 (not present) to 4 (severe), with a total score range of 0-53, where <14 indicates mild severity, 15-21 mild to moderate severity, and 22-27 moderate to severe. […]
To measure the effects of the CBD formulation on anxiety, study participants completed a modified version of the Hamilton Anxiety Rating Scale, one of the first rating scales developed to measure the severity of anxiety symptoms that is widely used in clinical and research settings^29. […] Each item is scored on a scale of 0 (not present) to 4 (severe), with a total score range of 0-53, where <14 indicates mild severity, 15-21 mild to moderate severity, and 22-27 moderate to severe.

[2] = cited from earlier work
[3] = Clinical study 1 (Le Rêve 1.0): sleep physiology by Whoop sleep-tracking wristband, double-blind placebo-controlled crossover; assay type: in vivo, humans; details: participant DR11; 7 days per treatment; relative to placebo
Protocol: Two independent clinical studies were completed to determine the effects of the CBD formulation on the structure and function of sleep physiology. Each of these independent studies were performed as a double-blind, placebo-controlled, randomized, crossover investigational study to determine if the CBD formulation influences sleep physiology in humans.
Primary sleep physiology data was collected from study participants in a completely unbiased manner from a non-invasive sleep-tracking wristband, called “Whoop” (https://www.whoop.com), which electronically collects and transmits sleep data from study participants in the comfort of their own beds. The wristband collects hundreds of data points per second from a 3-axis accelerometer, 3-axis gyroscope, and heart rate sensor. The wristband can accurately measure latency to fall asleep, total sleep time, sleep fragmentation, as well as the time spent in each sleep stage [Light, Slow Wave (Deep), Rapid Eye Movement (REM), and Awake]. The wristband also collects data using photoplethysmography (PPG), a technique that involves measuring blood flow by assessing superficial changes in blood volume. Heart rate, heart rate variability, and respiratory rate, can all be derived from PPG data, and all of these metrics are used in Whoop's sleep detection and staging algorithms. […]

[4] = given before simulation public speaking test; vs placebo; cited from earlier work
[5] = Clinical study 1: sleep survey / Participant Global Impression (PGI) questionnaire; assay type: in vivo, humans; details: participant DR11; sleep survey at end of treatment period
Excerpt: FIG. 7 is a graph showing the Study Participants Perceived That the CBD formulation Helped Them Sleep Better [p=0.13; (t test). n=23 responders per treatment group. Values are means±SEM]. At the end of each treatment period, study participants used a PGI questionnaire to determine if the treatment influenced their sleep relative to a baseline period before the treatments were initiated. Scoring Matrix: 1=Treatment Helped; 2-No Effect of Treatment; 3-Treatment Worsened.
In the first study, participants (N=23) were randomized to take a placebo control or the CBD formulation stated as Defined CBD in the Figures (˜300 mg CBD, ˜8 mg terpenes including linalool, myrcene, phytol, limonene, α-terpinene, α-terpineol, α-pinene, and β-caryophyllene) once daily, one hour before bedtime, for seven consecutive nights. […] Indeed, on average, over seven days of treatment, participant DR11 benefitted from nearly an extra hour of restorative sleep each night relative to the placebo control (FIG. 2B). Furthermore, participant DR11 was also able to perceive an improvement in their sleep quality and duration relative to the placebo control when they responded to a clinically validated sleep survey at the end of the treatment periods (as shown in Table 1).
At the end of each treatment period in the clinical studies, participants completed a modified version of a clinically validated questionnaire entitled the Participant Global Impression (PGI)^28. PGI assessments are based on the participant's global perception of the effects of treatment on sleep during each treatment period, as compared to their sleep during the baseline period of the study. […] Nevertheless, based on post-hoc power analysis performed, this effect would achieve statistical significance with a larger sample number.

GABAA receptor [6] = details: cited from earlier work; for GABAA receptor activity in cells: cell experiments
[7] = preclinical data; cited from earlier work
[8] = rodents; cited from earlier work
GABAA receptor [9] = details: cited from earlier work
[10] = after one week of dosing; effect blocked by flumazenil; cited from earlier work
SSADH = target: T1, SSADH (Homo sapiens, UniProt P51649); details: cited from earlier work
T1 sequence (P51649 48-535): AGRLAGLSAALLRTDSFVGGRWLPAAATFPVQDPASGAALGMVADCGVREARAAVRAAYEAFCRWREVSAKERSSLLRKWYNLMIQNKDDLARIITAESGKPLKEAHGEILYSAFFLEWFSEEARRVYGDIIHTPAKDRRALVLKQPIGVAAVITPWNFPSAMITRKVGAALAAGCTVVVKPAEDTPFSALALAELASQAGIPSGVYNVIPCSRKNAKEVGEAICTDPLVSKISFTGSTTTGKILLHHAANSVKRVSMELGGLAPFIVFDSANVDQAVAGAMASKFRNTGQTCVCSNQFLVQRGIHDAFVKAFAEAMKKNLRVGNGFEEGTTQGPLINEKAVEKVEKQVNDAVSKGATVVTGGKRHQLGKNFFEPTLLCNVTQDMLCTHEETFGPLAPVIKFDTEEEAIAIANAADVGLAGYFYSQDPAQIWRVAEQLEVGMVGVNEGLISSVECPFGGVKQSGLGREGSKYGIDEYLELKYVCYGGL

Q: For cannabidiol [CBD alone], which “Hamilton Anxiety Rating Scale score” value [1] is on record?
A: 11

Q: What about the “block of the anxiogenic effects of THC” value ([2]; clinical studies) of the same compound?
A: can be blocked

Q: What about the “increase in percentage of time spent in REM sleep” value [3] of the same compound?
A: about 4%

Q: What about the “increase in percentage of time spent in restorative sleep” value [3] of the same compound?
A: about 2%

Q: What about the “anxiety, cognitive impairment and discomfort” value [4] of the same compound?
A: significantly reduced

Q: And the “hyper-alertness in anticipatory speech” value [4]?
A: significantly decreased

Q: And the “Decreased Sleep Onset” value [5]?
A: No

Q: What about the “Improved Sleep” value [5] of the same compound?
A: No

Q: What about the “Lengthened Sleep Duration” value [5] of the same compound?
A: No

Q: Which “GABAA receptor activity in cells” value (GABAA receptor [6]) does the source give for `CC1=CCC(C(C)(C)O)CC1` (stereo not drawn) [α-terpineol, 2-(4-methylcyclohex-3-en-1-yl)propan-2-ol] here?
A: increase

Q: What about the sedation in animals [7] of the same compound?
A: induce sedation

Q: For `C=CC(C)(O)CCC=C(C)C` (centres unmarked) [linalool], which sleep [8] is on record?
A: increases sleep

Q: And the “binding to the GABA site or the benzodiazepine site of the GABAA receptor” value (GABAA receptor [9])?
A: does not bind

Q: And the “GABAA receptor activity in cells” value (GABAA receptor [6])?
A: significantly augment

Q: And the sedation in animals [7]?
A: induce sedation

Q: With `C=C1CC/C=C(\C)CC[C@@H]2[C@@H]1CC2(C)C` [β-caryophyllene] as the compound, how does the locomotor activity [8] read?
A: did not affect

Q: And the motor coordination [8]?
A: did not affect

Q: What about the sleep [8] of the same compound?
A: mildly promote sleep

Q: And the sedation in animals [7]?
A: induce sedation

Q: For `C=CC(=C)CCC=C(C)C` [myrcene, 7-methyl-3-methylene-1,6-octadiene], which “GABAA receptor activity in cells” value (GABAA receptor [6]) is on record?
A: increased

Q: What about the sedation in animals [7] of the same compound?
A: induce sedation

Q: Which results are given for `C=C(C)C1CC=C(C)CC1` (centres unmarked) [limonene, 1-methyl-4-prop-1-en-2-ylcyclohexene]?
A: locomotor activity [8]: reduced; motor coordination [8]: impaired; sleep [8]: induced sleep; brain GABA levels [10]: increased; sedation in animals [7]: induce sedation

Q: For `CCCCCc1cc(O)c2c(c1)OC(C)(C)[C@@H]1CCC(C)=C[C@@H]21` [THC, tetrahydrocannabinol], which “anxiety-promoting properties in clinical studies” value ([2]; in vivo) is on record?
A: anxiogenic

Q: What does the source list for `C/C(=C\CO)CCC[C@H](C)CCC[C@H](C)CCCC(C)C` [phytol, (2E,7R,11R)-3,7,11,15-Tetramethylhexadec-2-en-1-ol]?
A: inhibition of SSADH (SSADH): inhibiting; sedative effects blocked by flumazenil [8]: blocked; sedation in animals [7]: induce sedation

Q: Which results are given for `CC1=CCC2CC1C2(C)C` (stereo not drawn) [α-pinene, 2,6,6-trimethylbicyclo[3.1.1]hept-2-ene]?
A: sedative effects blocked by flumazenil [8]: blocked; GABAA receptor activity in cells (GABAA receptor [6]): increased; effect in neurons blocked by flumazenil (GABAA receptor [6]; neurons, flumazenil (benzodiazepine site antagonist)): fully blocked; sedation in animals [7]: induce sedation

Q: For `CC1=CC=C(C(C)C)CC1` [α-terpinene, 1-methyl-4-propan-2-ylcyclohexa-1,3-diene], which sedation in animals [7] is on record?
A: induce sedation
